Measurements reported in PubChem BioAssay AID248 (DTP/NCI, 2004).
Values joined by “and” are separate entries in the source; they are usually repeats but may differ in a detail not shown here. Equal values may be shown once. Inconclusive results and toxic doses are left out.

Tested on: L1210 leukemia ip in BDF1 mice, survival T/C
Assay: NCI In Vivo Anticancer Drug Screen. Data for tumor model L1210 Leukemia (intraperitoneal) in B6D2F1 (BDF1) mice
Details: endpoint: mean survival time, higher = longer survival
Summary of the method: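 Tumor cells were implanted, animals were treated, and survival was followed. The result divides the treated measurement by the vehicle-control measurement.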

[1] = dose: 100.0 mg/kg/injection, schedule: Q04DX002 (ip), vehicle: Klucel (hydroxypropylcellulose) (HPC)
[2] = dose: 200.0 mg/kg/injection, schedule: Q04DX002 (ip), vehicle: Klucel (hydroxypropylcellulose) (HPC)
[3] = dose: 400.0 mg/kg/injection, schedule: Q04DX002 (ip), vehicle: Klucel (hydroxypropylcellulose) (HPC)
[4] = dose: 100.0 mg/kg/injection, schedule: Q04DX003 (ip), vehicle: saline with Tween-80
[5] = dose: 200.0 mg/kg/injection, schedule: Q04DX003 (ip), vehicle: saline with Tween-80
[6] = dose: 400.0 mg/kg/injection, schedule: Q04DX003 (ip), vehicle: saline with Tween-80
[7] = dose: 100.0 mg/kg/injection, schedule: Q01DX009 (ip), vehicle: saline with Tween-80
[8] = dose: 200.0 mg/kg/injection, schedule: Q01DX009 (ip), vehicle: saline with Tween-80
[9] = dose: 400.0 mg/kg/injection, schedule: Q01DX009 (ip), vehicle: saline with Tween-80
[10] = dose: 100.0 mg/kg/injection, schedule: Q01DX009 (ip), vehicle: Klucel (hydroxypropylcellulose) (HPC)
[11] = dose: 100.0 mg/kg/injection, schedule: Q04DX003 (ip), vehicle: Klucel (hydroxypropylcellulose) (HPC)

For `C1CN1P1(N2CC2)=NP(N2CC2)(N2CC2)=NP(N2CC2)(N2CC2)=NP(N2CC2)(N2CC2)=N1`, the T/C (dose: 4.4 mg/kg/injection, schedule: Q04DX003 (ip), vehicle: saline) was 114 % of control, the T/C (dose: 6.6 mg/kg/injection, schedule: Q04DX003 (ip), vehicle: saline) was 116 % of control and the T/C (dose: 10.0 mg/kg/injection, schedule: Q01DX001 (ip), vehicle: saline) was 118 % of control. The T/C (dose: 10.0 mg/kg/injection, schedule: Q04DX003 (ip), vehicle: saline) was 119 % of control, the T/C (dose: 20.0 mg/kg/injection, schedule: Q04DX003 (ip), vehicle: saline) was 117 % of control and the T/C (dose: 40.0 mg/kg/injection, schedule: Q01DX001 (ip), vehicle: saline) was 124 % of control. For the same compound, the T/C (dose: 40.0 mg/kg/injection, schedule: Q04DX003 (ip), vehicle: saline) was 109 % of control.
For `C=Cc1c2ccccc2cc2c1ccc1ccccc12`, the T/C (dose: 100.0 mg/kg/injection, schedule: Q04DX002 (ip), vehicle: other) was 102 % of control, the T/C (dose: 200.0 mg/kg/injection, schedule: Q04DX002 (ip), vehicle: other) was 106 % of control and the T/C (dose: 400.0 mg/kg/injection, schedule: Q04DX002 (ip), vehicle: other) was 109 % of control.
For `COC1/C=C/OC2(C)Oc3c(C)c(O)c4c(O)c(c(/C=N/N(C)c5ncnc6c5ncn6C5OC(CO)C(O)C5O)c(O)c4c3C2=O)NC(=O)C(C)=C/C=C/C(C)C(O)C(C)C(O)C(C)C(OC(C)=O)C1C` (centres undefined), the T/C (dose: 200.0 mg/kg/injection, schedule: Q01DX009 (ip), vehicle: saline) was 87 % of control and the T/C (dose: 400.0 mg/kg/injection, schedule: Q01DX009 (ip), vehicle: saline) was 94 % of control.
With `O=[N+]([O-])c1ccc(N/N=C\c2c(Cl)c(Cl)c(/C=N/Nc3ccc([N+](=O)[O-])cc3)c(Cl)c2Cl)cc1` the T/C (dose: 50.0 mg/kg/injection, schedule: Q01DX001 (ip), vehicle: saline) was 91 % of control, the T/C (dose: 100.0 mg/kg/injection, schedule: Q01DX001 (ip), vehicle: saline) was 91 % of control and the T/C (dose: 200.0 mg/kg/injection, schedule: Q01DX001 (ip), vehicle: saline) was 94 % of control. For the same compound, the T/C (dose: 400.0 mg/kg/injection, schedule: Q01DX001 (ip), vehicle: saline) was 94 % of control.
`C1CCc2nnnn2CC1` was tested, and the T/C (dose: 6.25 mg/kg/injection, schedule: Q01DX009 (ip), vehicle: saline) was 111 % of control, the T/C (dose: 12.5 mg/kg/injection, schedule: Q01DX009 (ip), vehicle: saline) was 101 % of control and 97 % of control and the T/C (dose: 12.5 mg/kg/injection, schedule: Q04DX003 (ip), vehicle: saline) was 103 % of control. The T/C (dose: 25.0 mg/kg/injection, schedule: Q01DX009 (ip), vehicle: saline) was 109 % of control and 90 % of control, the T/C (dose: 25.0 mg/kg/injection, schedule: Q04DX003 (ip), vehicle: saline) was 101 % of control and the T/C (dose: 50.0 mg/kg/injection, schedule: Q01DX009 (ip), vehicle: saline) was 96 % of control. For the same compound, the T/C (dose: 50.0 mg/kg/injection, schedule: Q04DX003 (ip), vehicle: saline) was 95 % of control and 106 % of control.
With `CCOC(=O)NP(=O)(N1CC1(C)C)N1CC1(C)C` (centres undefined) the T/C (dose: 62.5 mg/kg/injection, schedule: Q01DX010 (ip), vehicle: saline) was 115 % of control and 120 % of control, the T/C (dose: 125.0 mg/kg/injection, schedule: Q01DX010 (ip), vehicle: saline) was 117 % of control and the T/C (dose: 250.0 mg/kg/injection, schedule: Q01DX010 (ip), vehicle: saline) was 151 % of control and 157 % of control.
In the case of `N/N=C(\c1ccccc1)c1ccccn1`, the T/C (dose: 55.0 mg/kg/injection, schedule: Q01DX Z (ip), vehicle: methylcellulose (MC)) is reported as 103 % of control, the T/C (dose: 83.0 mg/kg/injection, schedule: Q01DX Z (ip), vehicle: methylcellulose (MC)) is reported as 97 % of control and the T/C (dose: 125.0 mg/kg/injection, schedule: Q01DX Z (ip), vehicle: methylcellulose (MC)) is reported as 90 % of control.
With `Cc1ccc(NC(=O)Oc2ccc(Br)cc2)c([N+](=O)[O-])c1` the T/C [1] was 99 % of control, the T/C [2] was 115 % of control and the T/C [3] was 92 % of control.
`OCC1OC(n2nc(Cl)c3ccccc32)C(O)C1O` (centres undefined) was tested, and the T/C (dose: 50.0 mg/kg/injection, schedule: Q01DX005 (ip), vehicle: other) was 105 % of control, the T/C (dose: 100.0 mg/kg/injection, schedule: Q01DX005 (ip), vehicle: other) was 102 % of control and the T/C (dose: 200.0 mg/kg/injection, schedule: Q01DX005 (ip), vehicle: other) was 102 % of control.
`CS(=O)(=O)OCCCN(CCCOS(C)(=O)=O)c1ccc(C=Nc2ccc(-c3csc(COc4ccc(Br)cc4Br)n3)cc2)cc1` was tested, and the T/C [4] was 91 % of control, the T/C [5] was 88 % of control and the T/C [6] was 86 % of control.
`COc1cc(CCNC(=O)Cc2ccc(OCc3ccccc3)c(OC)c2)ccc1OCc1ccccc1` was tested, and the T/C [7] was 89 % of control, the T/C [8] was 101 % of control and the T/C [9] was 94 % of control.
`CCOC(=O)c1ccc(NC(=O)C(Br)C(Br)C(=O)O)cc1` (centres undefined) was tested, and the T/C [7] was 94 % of control, the T/C [4] was 101 % of control and the T/C [8] was 94 % of control. The T/C [5] was 100 % of control, the T/C [9] was 97 % of control and the T/C [6] was 101 % of control.
With `O=S(=O)(Nc1cc(S(=O)(=O)c2ccccc2)c(NS(=O)(=O)c2ccccc2)c(Cl)c1Cl)c1ccccc1` the T/C (dose: 75.0 mg/kg/injection, schedule: Q04DX003 (ip), vehicle: Klucel (hydroxypropylcellulose) (HPC)) was 103 % of control, the T/C (dose: 150.0 mg/kg/injection, schedule: Q04DX003 (ip), vehicle: Klucel (hydroxypropylcellulose) (HPC)) was 92 % of control and the T/C (dose: 300.0 mg/kg/injection, schedule: Q04DX003 (ip), vehicle: Klucel (hydroxypropylcellulose) (HPC)) was 95 % of control.
For `CN(C)C=Nc1ncnc2nc[nH]c12`, the T/C (dose: 100.0 mg/kg/injection, schedule: Q04DX002 (ip), vehicle: saline with Tween-80) was 102 % of control, the T/C (dose: 200.0 mg/kg/injection, schedule: Q04DX002 (ip), vehicle: saline with Tween-80) was 102 % of control and the T/C (dose: 400.0 mg/kg/injection, schedule: Q04DX002 (ip), vehicle: saline with Tween-80) was 109 % of control.
With `O=C(C[n+]1c(Cl)ccc2ccccc21)c1ccccc1` the T/C (dose: 75.0 mg/kg/injection, schedule: Q01DX001 (ip), vehicle: other) was 94 % of control and the T/C (dose: 150.0 mg/kg/injection, schedule: Q01DX001 (ip), vehicle: other) was 100 % of control.
With `Cc1ccc(C(=O)CCCc2ccccn2)cc1` the T/C (dose: 222.0 mg/kg/injection, schedule: Q01DX Z (ip), vehicle: methylcellulose (MC)) was 98 % of control, the T/C (dose: 333.0 mg/kg/injection, schedule: Q01DX Z (ip), vehicle: methylcellulose (MC)) was 100 % of control and the T/C (dose: 500.0 mg/kg/injection, schedule: Q01DX Z (ip), vehicle: methylcellulose (MC)) was 87 % of control.
`O=S(=O)(O)C(O)c1ccccc1` (centres undefined) was tested, and the T/C (dose: 100.0 mg/kg/injection, schedule: Q04DX002 (ip), vehicle: saline) was 97 % of control, the T/C (dose: 200.0 mg/kg/injection, schedule: Q04DX002 (ip), vehicle: saline) was 100 % of control and the T/C (dose: 400.0 mg/kg/injection, schedule: Q04DX002 (ip), vehicle: saline) was 103 % of control.
For `CCCCOP(=O)(CSCC)OCCCC`, the T/C [10] was 98 % of control, the T/C (dose: 200.0 mg/kg/injection, schedule: Q01DX009 (ip), vehicle: Klucel (hydroxypropylcellulose) (HPC)) was 90 % of control and the T/C (dose: 400.0 mg/kg/injection, schedule: Q01DX009 (ip), vehicle: Klucel (hydroxypropylcellulose) (HPC)) was 93 % of control.
`Cc1ccc(NN)cc1Cl` was tested, and the T/C [11] was 105 % of control and the T/C (dose: 200.0 mg/kg/injection, schedule: Q04DX003 (ip), vehicle: Klucel (hydroxypropylcellulose) (HPC)) was 91 % of control.
With `Cc1cccc2ccccc12` the T/C [1] was 107 % of control, the T/C [2] was 107 % of control and the T/C [3] was 107 % of control.
`C1=C(c2ccccc2)N(C2CCCC2)C(c2ccccc2)=CN1Cc1ccccc1` was tested, and the T/C [1] was 100 % of control, the T/C [2] was 95 % of control and the T/C [3] was 97 % of control.
With `CCCCNC(=O)c1cc(NC(=O)c2ccc(C(=O)Nc3cc(C(=O)NCCCC)cc(C4N=CCN4)c3)cc2)cc(C2=NCCN2)c1` (centres undefined) the T/C (dose: 5.0 mg/kg/injection, schedule: Q01DX015 (ip), vehicle: methylcellulose (MC)) was 86 % of control, the T/C (dose: 20.0 mg/kg/injection, schedule: Q01DX015 (ip), vehicle: methylcellulose (MC)) was 86 % of control and the T/C (dose: 40.0 mg/kg/injection, schedule: Q01DX015 (ip), vehicle: methylcellulose (MC)) was 91 % of control. For the same compound, the T/C (dose: 62.0 mg/kg/injection, schedule: Q01DX015 (ip), vehicle: methylcellulose (MC)) was 100 % of control.
With `CC(=O)OS(C)(=O)=O` the T/C (dose: 50.0 mg/kg/injection, schedule: Q01DX009 (ip), vehicle: Klucel (hydroxypropylcellulose) (HPC)) was 100 % of control, the T/C [10] was 100 % of control and the T/C [11] was 105 % of control.
